Measured values taken from patent publication US8273724B2, “Melanoma antigens and their use in diagnostic and therapeutic methods” (The United States of America, as represented by the …, priority 1994, dated 2012).
Read-outs that look alike come from different tables or passages of the source. One block for each molecule: values may come before it. Where a SMILES comes first, the peptide text is derived from it.

Key:
HLA-A2.1 [1] = biological target: T1, HLA-A2.1 (Homo sapiens, UniProt P04439, D140Y/D185E/D98H/E176V/E277Q/G131W/G231S/I119V/I121R/I166T/I218V/L300P/L318F/N151K/N90K/P208A/P217A/Q86G/Q94H/R138H/R169H/T345S); experiment: Peptide binding assay to HLA-A2.1, competition with radiolabeled HBc18-27 (Example 4)
[2] = tested on: 624mel melanoma cell line; experiment: Induction of peptide specific CTL from PBL, 51Cr release against melanoma cells (Example 5); assay type: cell-based, human; settings: for % specific lysis by PBL stimulated with the peptide: target 624mel, E:T = 3D40:1
Protocol: (§1) Induction of peptide specific CTL PBMC were separated from peripheral blood of HLA-A2+ melanoma patients and normal donors by centrifugation on Ficoll-Hypaque gradients and used as fresh or cryopreserved samples. […] Two days later, 12 IU/ml interleukin 2 (IL-2) (Chiron Co., Emeryville, Calif.) were added to the cultures. Lymphocytes were then restimulated weekly as follows: responder cells were harvested, washed once and replated in 24-well plates at a concentration of 2.5×10^5 cells/ml in CM. Autologous PBMC were thawed, washed twice in PBS, resuspended at 5-8×10^6 cells/ml in CM and pulsed with 1 ug/ml peptide in 15-ml conical tubes (5 ml/tube) for 3 hours at 37° C. These PBMC (stimulators) were then irradiated at 3000 rads, washed once in PBS and added to the responder cells at responder:stimulator ratios ranging between 1:3 and 1:10. The next day, 12 IU/ml IL-2 were added to the cultures. The activity of these CTL was tested by cytotoxicity assays after at least 2 rounds (14 days) of peptide stimulation. To generate CTL from TIL cultures, the dissociated tumor suspension were cultured for 1-2 days in 10% FCS RPMI-1640 medium to allow tumor cell adherence. The lymphocytes, recovered from the non-adherent fraction, were used for the induction of peptide specific CTL as described above.
(§2) Assessment of antigen recognition by CTL. ^51Cr release cytotoxic assays were performed to detect the recognition of peptide and melanoma cells by CTL. To analyze peptide recognition, T2 cell lines were preincubated for 2 h at 37° C. with 1 ug/ml peptide, washed and used as target cells in a ^51Cr release cytotoxic assay. The melanoma lines 624mel was established in our laboratory (See Example 1).

T2 cells = experiment: Induction of peptide specific CTL from PBL, 51Cr release against T2 cells with or without peptide (Example 5); assay type: cell-based, human; settings: E:T = 3D40:1
Protocol: as §1, §2

HLA-A2.1+ T2 cells = settings: for TIL that recognize the peptide: cytotoxicity assays, T2 preincubated with peptide
HLA-A2.1 [3] = biological target: T1, HLA-A2.1; experiment: HLA-A2.1 binding assay of modified peptides, inhibition of radiolabeled Hbc 18-27 (Example 5)
[4] = tested on: T2 cell lines preincubated with peptide; experiment: Recognition of modified peptides by natural epitope (M9-2, G9-154, G9-209, G9-280) reactive T-cells, 51Cr release on peptide-pulsed T2 cells (Example 5); assay type: cell-based, human
Outline: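 T2 target cells were pulsed with 1 ug/ml peptide for 2 h at 37° C., then washed. CTL recognition was measured by ^51Cr release cytotoxicity.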

[5] = tested on: T2 cells preincubated with peptides; experiment: IFN-γ / cytokine release by TIL incubated with T2 cells preincubated with peptides; assay type: cell-based, human; settings: T2 cells preincubated with peptide; data not shown
[6] = Exp. 1, peptide 1 ug/ml, TIL 620-1
[7] = Exp. 1, peptide 1 ug/ml, TIL 620-2
[8] = Exp. 1, peptide 1 ug/ml, TIL 660-1
[9] = Exp. 1, peptide 1 ug/ml, TIL 1143
[10] = Exp. 1, peptide 1 ug/ml, TIL 1200
[11] = Exp. 1, peptide 1 ug/ml, TIL 1235
[12] = Exp. 3, peptide 1 ug/ml, TIL 660-3
[13] = Exp. 3, peptide 1 ug/ml, TIL 1143
[14] = Exp. 3, peptide 1 ug/ml, TIL 1200
[15] = Exp. 3, peptide 1 ug/ml, TIL 1235

Structure (SMILES): CC(C)C[C@H](NC(=O)[C@H](CCCNC(=N)N)NC(=O)[C@H](CC(C)C)NC(=O)[C@@H](NC(=O)[C@H](C)NC(=O)[C@@H](NC(=O)CNC(=O)[C@H](CC(=O)O)NC(=O)[C@H](CC(C)C)NC(=O)[C@@H](N)CC(C)C)[C@@H](C)O)[C@@H](C)O)C(=O)O [G10-4]
- IC50 (HLA-A2.1 [1]): 483 nM

- binding affinity class to HLA-A2.1 (HLA-A2.1 [1]): inteivediate
- HLA-A2.1 binding, in words (HLA-A2.1 [3]; natural epitopes): not high affinity binders
Structure (SMILES): CC(C)C[C@H](NC(=O)[C@@H](N)Cc1ccc(O)cc1)C(=O)N[C@@H](CCC(=O)O)C(=O)N1CCC[C@H]1C(=O)NCC(=O)N1CCC[C@H]1C(=O)N[C@H](C(=O)N[C@H](C(=O)N[C@@H](C)C(=O)O)[C@@H](C)O)C(C)C [G9280]
- % specific lysis by PBL stimulated with the peptide ([2]; after 4 stimulations (Table 20)): 11%
- % specific lysis by PBL stimulated with the peptide (T2 cells; target T2 + G9-280-9V, after 4 stimulations): 8%
- % specific lysis by PBL stimulated with the peptide (T2 cells; target T2 + G9-280, after 4 stimulations): 11%
- % specific lysis by PBL stimulated with the peptide (T2 cells; target T2, after 4 stimulations (Table 20)): 3%
- number of gp100 reactive TIL recognizing the peptide (HLA-A2.1+ T2 cells; 4 gp100 reactive TIL from different patients): 2 of 4
- % specific lysis at E:T = 40:1 (HLA-A2.1+ T2 cells; [6]): 2%
- % specific lysis at E:T = 40:1 (HLA-A2.1+ T2 cells; [7]): 7%
- % specific lysis at E:T = 40:1 (HLA-A2.1+ T2 cells; [8]): 43%
- % specific lysis at E:T = 40:1 (HLA-A2.1+ T2 cells; [9]): 11%
- % specific lysis at E:T = 40:1 (HLA-A2.1+ T2 cells; [10]): 0%
- % specific lysis at E:T = 40:1 (HLA-A2.1+ T2 cells; [11]): 0%
- % specific lysis at E:T = 40:1 (HLA-A2.1+ T2 cells; Exp. 2, peptide 1 ng/ml, TIL 620-1): 2%
- % specific lysis at E:T = 40:1 (HLA-A2.1+ T2 cells; Exp. 2, peptide 1 ng/ml, TIL 620-2): 9%
- % specific lysis at E:T = 40:1 (HLA-A2.1+ T2 cells; Exp. 2, peptide 1 ng/ml, TIL 660-2): 75%
- % specific lysis at E:T = 40:1 (HLA-A2.1+ T2 cells; Exp. 2, peptide 1 ng/ml, TIL 1143): 34%
- % specific lysis at E:T = 40:1 (HLA-A2.1+ T2 cells; Exp. 2, peptide 1 ng/ml, TIL 1200): 1%
- % specific lysis at E:T = 40:1 (HLA-A2.1+ T2 cells; Exp. 2, peptide 1 ng/ml, TIL 1235): 2%
- % specific lysis at E:T = 40:1 (HLA-A2.1+ T2 cells; [12]): 99%
- % specific lysis at E:T = 40:1 (HLA-A2.1+ T2 cells; [13]): 37%
- % specific lysis at E:T = 40:1 (HLA-A2.1+ T2 cells; [14]): 9%
- % specific lysis at E:T = 40:1 (HLA-A2.1+ T2 cells; [15]): 5%
- TIL that recognize the peptide (HLA-A2.1+ T2 cells): recognized by TIL660 and TIL1143

Structure (SMILES): CC[C@H](C)[C@H](NC(=O)CNC(=O)[C@H](C)NC(=O)[C@H](C)N)C(=O)NCC(=O)N[C@H](C(=O)N[C@@H](CC(C)C)C(=O)N[C@H](C(=O)N[C@H](C(=O)O)C(C)C)[C@@H](C)O)[C@@H](C)CC [M9-2]
- Recognition by M9-2 reactive T-cell [4]: + (+, recognized)
- cytokine secretion (IFN-γ, GM-CSF, TNF-α) by 10 TIL and clone A42 [5]: secreted cytokines

- IC50 (HLA-A2.1 [1]; binding to HLA-A2.1): 13 nM
- Ratio to Standard: binding affinity of the sample peptide to that of the standard peptide (HLA-A2.1 [1]; standard peptide 50% inhibition at 5 nM): 0.38
Structure (SMILES): CC(C)C[C@H](NC(=O)[C@@H](N)C(C)C)C(=O)N[C@@H](Cc1ccc(O)cc1)C(=O)N[C@@H](CCCNC(=N)N)C(=O)N[C@@H](Cc1ccc(O)cc1)C(=O)NCC(=O)N[C@@H](CO)C(=O)N[C@@H](Cc1ccccc1)C(=O)N[C@@H](CO)C(=O)N[C@H](C(=O)O)C(C)C [G10-5] (H-VLYRYGSFSV-OH; N-terminus and C-terminus assumed)
- lysis of T2 cells preincubated with the peptide (HLA-A2.1+ T2 cells): repeatedly low
- % specific lysis at E:T = 40:1 (HLA-A2.1+ T2 cells; [6]): 2%
- % specific lysis at E:T = 40:1 (HLA-A2.1+ T2 cells; [7]): 7%
- % specific lysis at E:T = 40:1 (HLA-A2.1+ T2 cells; [8]): 2%
- % specific lysis at E:T = 40:1 (HLA-A2.1+ T2 cells; [9]): 1%
- % specific lysis at E:T = 40:1 (HLA-A2.1+ T2 cells; [10]): 7%
- % specific lysis at E:T = 40:1 (HLA-A2.1+ T2 cells; [11]): 0%
- % specific lysis at E:T = 40:1 (HLA-A2.1+ T2 cells; [12]): 14%
- % specific lysis at E:T = 40:1 (HLA-A2.1+ T2 cells; [13]): 2%
- % specific lysis at E:T = 40:1 (HLA-A2.1+ T2 cells; [14]): 6%
- % specific lysis at E:T = 40:1 (HLA-A2.1+ T2 cells; [15]): 5%
- TIL that recognize the peptide (HLA-A2.1+ T2 cells): TIL660-3 also recognized

- IC50 (HLA-A2.1 [3]; modified gp100 G9-154 peptides, read-out: Binding affinity to HLA-A2.1): 3 nM
Structure (SMILES): CC[C@H](C)[C@H](NC(=O)[C@@H](N)CCCCN)C(=O)N[C@@H](Cc1c[nH]c2ccccc12)C(=O)NCC(=O)N[C@@H](CCC(N)=O)C(=O)N[C@@H](Cc1ccc(O)cc1)C(=O)N[C@@H](Cc1c[nH]c2ccccc12)C(=O)N[C@@H](CCC(N)=O)C(=O)N[C@H](C(=O)O)C(C)C [G9-154-2I] (H-KIWGQYWQV-OH; N-terminus and C-terminus assumed)
- recognition and lysis of original epitopes and melanoma tumor cells (624 mel) by PBL stimulated with the peptide, compared with natural epitopes ([2]; PBL stimulated with autologous PBMC pulsed with peptide): better
- % specific lysis by PBL stimulated with the peptide ([2]; after 4 stimulations (Table 18)): 23%
- Recognition by G9-154 reactive T-cell [4]: + (+, recognized)
- % specific lysis by PBL stimulated with the peptide (T2 cells; target T2 + G9-154-2I, after 4 stimulations): 38%
- % specific lysis by PBL stimulated with the peptide (T2 cells; target T2 + G9-154, after 4 stimulations): 37%
- % specific lysis by PBL stimulated with the peptide (T2 cells; target T2, after 4 stimulations (Table 18)): 1%
